Tests used:
MPTP mouse model of PD [1] = assay: Aminoindan in MPTP mouse model of PD, striatal dopamine by HPLC; assay type: in vivo; conditions: MPTP mice; SR by ALZET pump for 12 days, compared with vehicle or daily IP injection of same drug
Experimental: (§1) Striatum tissue samples were homogenized in ice in 500 μl homogenization buffer (0.1M perchloric acid, 0.02% EDTA and 1% ETOH) using OMNI Tip homogenizing kit of OMNI International (intermediate speed, 3×10 seconds with 5 seconds intervals). The homogenates were sonicated for 5 min and were then centrifuged at 15,000 rpm at 4° C. for 15 min. The supernatants were transferred into fresh tubes and dopamine content was analyzed by HPLC.
Male C57B1/6 mice weighing 20+/−1 g were used in all experiments (10 mice per group). MPTP was administrated by IP injection at a dose of 40 mg/Kg per day for 5 days. Controls were naïve untreated mice injected with saline, and MPTP-treated mice injected with saline. Aminoindan was applied for 12 days either by daily IP injection or by sustained release using an ALZET pump implanted IP. The effect of the treatments was assessed by measurement of dopamine and its metabolites (dihydroxyphenylacetic acid and homovanillic acid) in left and right striatum taken from the mice at the end of the experiment. Striatum tissue samples were prepared for HPLC as described in Experimental.

MPTP mouse model of PD [2] = assay: Rasagiline-pramipexole combinations in MPTP mouse model of PD, striatal dopamine by HPLC; assay type: in vivo; conditions: for dopamine levels compared to naïve mice: sustained release over 24 hours
Description: A significant body of biochemical data from human brain autopsy studies and those from animal models point to an ongoing process of oxidative stress in the substantia nigra which could initiate dopaminergic neurodegeneration.
MPTP is converted in the brain into the positively charged molecule MPP^+ (1-methyl-4-phenylpyridinium) by the enzyme monoamine oxidase (MAO)-B, causing parkinsonism in primates by killing certain dopamine-producing neurons in the substantia nigra. MPP^+ acts by interfering with oxidative phosphorylation in mitochondria, causing depletion of ATP and cell death.
as §1
The study included 10 groups of about 7-9 mice each, which were treated according to Table 1. […] MPTP was daily injected, during the initial 5 days (days 0-4), and the drug combinations were administered on days 0-11, either IP or using ALZET pump (ALZET micro-osmotic pump, model 1002 with a rate of 0.25 μl/hr, DURECT Corporation, Cupertino, USA) to simulate sustained release. Groups 5-7 were administered with the drug combination 30 min before MPTP application, daily during the initial five days (day 0-4), and on the following days (5-11) drugs are administrated approximately at the same time each dosing day. The ALZET pump was intraperitonealy implanted 15-17 hours before first MPTP administration (groups 8-10), and the total amount of drugs applied by the pump during the dosing period was identical to that given to the IP-injected groups. Controls were naïve untreated mice injected with saline, and MPTP-administered mice injected with saline.
Body weight was measured prior to dosing and every day during the dosing, and individual body weight changes were calculated. Clinical signs were recorded twice weekly throughout the entire study. At study termination day 12, all animals were euthanatized via CO2 asphyxiation. The brain was rapidly removed, placed on a refrigerated plate and dissected. The left and right striatum were removed, weighted, snap-frozen in liquid nitrogen, and stored in −70° C. until further processing. Striatum tissue samples were prepared for HPLC as described in Experimental.

6-OHDA rat model of PD = conditions: 6-OHDA rats; SR by ALZET pump 28 days compared with daily IP injections; amphetamine 1.5 mg/kg IP, 60 min recording
Description: Since in PD it is mainly the dopaminergic nigrostriatal pathway that is subject to degeneration, animal models have been developed in which 6-OHDA lesions of the dopaminergic system were made by unilateral injection of the toxin directly into major efferent projection of the nigrostriatal bundle.
Unilaterally lesioning of the Medial Forebrain Bundle (MFB) by 6-OHDA causes unilaterally destruction of the dopaminergic neurons of the nigrostriatal pathway leading to asymmetry in motor behavior of rats. […] More specifically, administration of the DA-releasing agent D-amphetamine creates a dopamine imbalance that favors the nonlesioned nigrostriatal projection and thus produces clockwise rotations. […] Drug-induced rotations are measured using an automated rotometer consisting of a rotation bowl and a swivel attached to the torso of the rat.
Male adult Sprague-Dawley rats weighing 250-300 g were lesioned with 6-OHDA in the middle forebrain bundle (MFB). Rats were anesthetized with Ketamine-Xylazine (85:15) 0.1 ml/100 g and mounted in the stereotaxic apparatus. 6-OHDA was injected into unilateral MFB according to the following stereotaxic coordinates: AP-2.8 mm, ML-2 mm relatively to the bregma, and DV-9 relatively from the Dura. The injection rate was 1 μl/min using an injection pump and Hamilton micro-syringe. […]

[3] = rat, in vivo, 1.5 mg/kg
Experimental: The cannulas were placed either in the colon, duodenum and jugular vein for colonic bolus, duodenal bolus and intravenous bolus administration, respectively. A single bolus dose administration to each compartment was done. In addition, a second indwelling cannula was placed in the right vein of each animal for systemic blood sampling. Blood samples (0.5 ml) were taken at 5 minutes pre-dose, 5, 15, 30, 50, 90, 150 and 200 minutes post-dose. To prevent dehydration, equal volumes of physiological solution were administrated to the rats following each withdrawal of blood sample. […] Non-compartmental pharmacokinetic analysis was performed using Excel software. The area under the curve (AUC) was calculated by non-compartmental analysis to the final measurable sample using the linear-log trapezoid method.

Row | SMILES | brain dopamine levels (MPTP mouse model of PD [1]) | dopamine content compared to naïve mice (MPTP mouse model of PD [2]; acute administration, rasagiline 0.1, 0.12 or 0.15 mg/kg (similar effect)) | dopamine levels compared to naïve mice (MPTP mouse model of PD [2]; rasagiline 0.1 mg/kg) [%] | dopamine levels compared to naïve mice (MPTP mouse model of PD [2]; rasagiline 0.12 mg/kg) [%] | dopamine levels compared to naïve mice (MPTP mouse model of PD [2]; rasagiline 0.15 mg/kg) [%] | amphetamine-induced net rotation (CW-CCW) (6-OHDA rat model of PD) | F (% of IV dose) [3] [%] | AUC ([3]; iv) | CL ([3]; iv) [mL/min/kg] | T1/2 ([3]; iv) [min] | Vss ([3]; iv)
1 | NC1CCc2ccccc21 (centres unmarked) [aminoindan, 1-aminoindan] | significant restoration of dopamine levels |  |  |  |  |  |  |  |  |  | 
2 | C#CCN[C@@H]1CCc2ccccc21 [rasagiline, R(+)—N-propargyl-1-aminoindan] |  | around 60% | 57 | 74 | 88 | significantly improved effect in net rotation | ~100 | 23,641 ± 3,481 hr * ng/ml | 54.3 ± 7.1 | 42.7 ± 5.5 | 2,404 ± 408 ml/Kg

— patent US9943489B2 (PHARMATWOB LTD., priority 2010, dated 2018)
